Activity calls are given as the source filed them.
Experiments:
[1] = biological target: T1, Eukaryotic translation initiation factor 4H (Homo sapiens, UniProt Q15056); assay: human eIF4H binding inhibitors, primary screen, translation initiation inhibitor project, biochemical, uHTS, fluorescence polarization (AID 2012)
[2] = biological target: T2, Polyadenylate-binding protein 1 (Homo sapiens, UniProt P11940); assay: PABP poly(A) RNA binding inhibitors, primary screen, biochemical, fluorescence polarization, uHTS (AID 2014)
T2 sequence (P11940 whole entry): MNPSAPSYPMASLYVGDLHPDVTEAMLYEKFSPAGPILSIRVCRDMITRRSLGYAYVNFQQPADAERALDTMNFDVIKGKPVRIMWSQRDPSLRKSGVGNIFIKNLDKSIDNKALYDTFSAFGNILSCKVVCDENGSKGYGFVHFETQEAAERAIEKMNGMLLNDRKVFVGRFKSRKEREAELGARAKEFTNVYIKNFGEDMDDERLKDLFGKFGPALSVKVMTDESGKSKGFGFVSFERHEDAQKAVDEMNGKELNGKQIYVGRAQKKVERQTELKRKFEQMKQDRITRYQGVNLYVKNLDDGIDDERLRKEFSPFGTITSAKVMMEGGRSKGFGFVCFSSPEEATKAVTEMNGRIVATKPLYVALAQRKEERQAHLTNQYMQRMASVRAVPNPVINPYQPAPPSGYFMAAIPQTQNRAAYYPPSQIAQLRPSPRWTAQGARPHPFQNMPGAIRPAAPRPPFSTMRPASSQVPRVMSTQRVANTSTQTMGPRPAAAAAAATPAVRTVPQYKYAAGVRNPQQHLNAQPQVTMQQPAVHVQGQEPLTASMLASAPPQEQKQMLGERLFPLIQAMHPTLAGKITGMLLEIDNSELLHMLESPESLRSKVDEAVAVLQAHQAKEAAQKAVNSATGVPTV

[3] = biological target: T1, Eukaryotic translation initiation factor 4H; assay: eIF4H inhibition in translation initiation, SAR follow-up (AID 435011); format: functional
[4] = biological target: T2, Polyadenylate-binding protein 1; assay: PABP inhibition in translation initiation, SAR follow-up (AID 435018); format: functional
Vero [5] = assay: Vero E6 cell cytotoxicity, SAR follow-up, cytotoxicity control for West Nile virus antiviral project, synthesized analogs (AID 2244); format: functional; details: Chlorocebus sabaeus
Aspartyl aminopeptidase = biological target: T3, Aspartyl aminopeptidase (Plasmodium falciparum 3D7, UniProt Q8I2J3)
T3 sequence (Q8I2J3 whole entry): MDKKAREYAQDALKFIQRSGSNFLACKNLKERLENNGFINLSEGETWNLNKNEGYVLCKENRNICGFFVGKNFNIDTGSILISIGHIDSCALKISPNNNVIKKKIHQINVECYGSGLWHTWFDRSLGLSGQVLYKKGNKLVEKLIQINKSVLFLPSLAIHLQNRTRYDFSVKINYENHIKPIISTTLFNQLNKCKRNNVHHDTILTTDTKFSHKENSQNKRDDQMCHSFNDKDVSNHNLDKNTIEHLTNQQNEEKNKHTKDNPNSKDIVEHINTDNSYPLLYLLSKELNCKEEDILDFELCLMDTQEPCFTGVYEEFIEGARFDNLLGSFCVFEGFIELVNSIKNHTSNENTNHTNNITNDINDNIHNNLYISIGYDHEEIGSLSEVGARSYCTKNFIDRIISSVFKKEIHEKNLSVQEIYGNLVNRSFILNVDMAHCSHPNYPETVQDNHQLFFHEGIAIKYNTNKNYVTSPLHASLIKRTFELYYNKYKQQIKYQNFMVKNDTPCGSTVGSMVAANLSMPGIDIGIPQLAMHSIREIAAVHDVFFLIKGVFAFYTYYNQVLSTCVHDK

Procathepsin L = Procathepsin L (Homo sapiens, UniProt P07711)
Sequence of Procathepsin L (P07711 whole entry): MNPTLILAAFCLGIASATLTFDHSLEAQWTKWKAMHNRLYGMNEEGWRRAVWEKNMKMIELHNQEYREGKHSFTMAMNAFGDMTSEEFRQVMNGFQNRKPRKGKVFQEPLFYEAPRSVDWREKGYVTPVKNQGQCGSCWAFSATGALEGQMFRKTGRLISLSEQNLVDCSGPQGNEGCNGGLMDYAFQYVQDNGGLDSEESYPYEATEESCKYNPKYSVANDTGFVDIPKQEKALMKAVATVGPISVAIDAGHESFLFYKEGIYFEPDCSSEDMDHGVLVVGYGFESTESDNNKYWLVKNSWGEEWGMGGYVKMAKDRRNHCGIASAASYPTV

Staphylococcus aureus = assay: Inhibitors of Bacterial Quorum Sensing Structure Activity Relationship (SAR) Analysis: Dose Response Assay. [Related pubchem assays: 700, 527 ]; format: functional, organism-based
[6] = biological target: G-protein coupled receptor 35 (Homo sapiens, UniProt Q9HC97); assay: GPR35 antagonists blocking zaprinast-driven arrestin recruitment, primary screen, imaging, U2OS, beta-arrestin-GFP, zaprinast agonist (AID 2058); format: functional;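 also: antagonist potency meaning inhibition of agonist-induced arrestin redistribution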
Sequence of G-protein coupled receptor 35 (Q9HC97 whole entry): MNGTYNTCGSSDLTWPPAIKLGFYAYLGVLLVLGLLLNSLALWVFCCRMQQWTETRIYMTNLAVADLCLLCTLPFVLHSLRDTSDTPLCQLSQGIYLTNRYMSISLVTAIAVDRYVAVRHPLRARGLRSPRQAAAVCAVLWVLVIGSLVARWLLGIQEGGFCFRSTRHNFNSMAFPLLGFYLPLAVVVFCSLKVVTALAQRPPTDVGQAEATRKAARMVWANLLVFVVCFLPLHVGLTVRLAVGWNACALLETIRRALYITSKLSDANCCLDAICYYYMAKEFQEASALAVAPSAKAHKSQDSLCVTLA

[7] = biological target: Acyl-homoserine lactone acylase PvdQ (Pseudomonas aeruginosa (strain LESB58), UniProt Q9I194); assay: P. aeruginosa PvdQ acylase inhibitors, dose response, biochemical, fluorescence, plate reader and imaging, cherry-picks (AID 493231)
Chaperone protein dnaK = Chaperone protein dnaK (Escherichia coli, UniProt C3TRK2); assay: DnaK beta-domain binding affinity, SAR follow-up, orthogonal assay for DnaK modulator project, biophysical, isothermal titration calorimetry, full-length DnaK (AID 1495)
Sequence of Chaperone protein dnaK (C3TRK2 whole entry): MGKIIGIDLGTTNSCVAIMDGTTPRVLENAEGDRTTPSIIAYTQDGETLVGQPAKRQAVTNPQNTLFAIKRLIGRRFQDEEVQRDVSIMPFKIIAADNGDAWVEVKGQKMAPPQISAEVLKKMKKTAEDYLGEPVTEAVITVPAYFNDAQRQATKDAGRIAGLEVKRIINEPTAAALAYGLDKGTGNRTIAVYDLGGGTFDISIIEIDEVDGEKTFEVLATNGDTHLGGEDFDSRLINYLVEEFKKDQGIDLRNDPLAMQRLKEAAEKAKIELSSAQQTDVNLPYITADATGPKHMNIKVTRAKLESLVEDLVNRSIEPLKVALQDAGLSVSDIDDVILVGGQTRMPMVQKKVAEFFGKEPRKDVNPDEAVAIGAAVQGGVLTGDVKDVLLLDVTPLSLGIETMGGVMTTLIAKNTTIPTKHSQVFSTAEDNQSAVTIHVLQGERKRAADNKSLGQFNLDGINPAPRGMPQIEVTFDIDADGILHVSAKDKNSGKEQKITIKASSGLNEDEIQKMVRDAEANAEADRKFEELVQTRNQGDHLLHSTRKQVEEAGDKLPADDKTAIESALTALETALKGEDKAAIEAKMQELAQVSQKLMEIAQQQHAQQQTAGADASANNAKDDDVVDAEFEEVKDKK

Trypsin = Trypsin (Sus scrofa, UniProt P00761); assay: porcine trypsin inhibitors, dose response, selectivity assay for Rce1 protease inhibitor project, biochemical, quenched peptide fluorescence, cherry-pick (AID 488789)
Sequence of Trypsin (P00761 whole entry): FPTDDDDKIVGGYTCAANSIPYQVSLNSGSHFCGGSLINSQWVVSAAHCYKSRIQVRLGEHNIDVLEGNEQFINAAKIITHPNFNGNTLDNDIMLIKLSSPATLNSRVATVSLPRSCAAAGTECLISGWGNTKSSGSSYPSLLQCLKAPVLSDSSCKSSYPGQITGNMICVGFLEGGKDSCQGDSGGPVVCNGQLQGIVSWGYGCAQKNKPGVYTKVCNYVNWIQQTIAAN

[8] = biological target: Melanin-concentrating hormone receptor 1 (Homo sapiens, UniProt Q99705); assay: Late-stage fluorescence-based counterscreen for antagonists of the G-protein coupled receptor 7 (GPR7): cell-based dose response assay to identify antagonists of the melanin-concentrating hormone receptor 1 (MCHR1). [Related pubchem assays (depositor defined):AID1861, AID1880, AID1952, AID2148, AID2251, AID2257, AID485339]; format: functional;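 also: stimulated with 30 nM MCH peptide agonist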
Sequence of Melanin-concentrating hormone receptor 1 (Q99705 whole entry): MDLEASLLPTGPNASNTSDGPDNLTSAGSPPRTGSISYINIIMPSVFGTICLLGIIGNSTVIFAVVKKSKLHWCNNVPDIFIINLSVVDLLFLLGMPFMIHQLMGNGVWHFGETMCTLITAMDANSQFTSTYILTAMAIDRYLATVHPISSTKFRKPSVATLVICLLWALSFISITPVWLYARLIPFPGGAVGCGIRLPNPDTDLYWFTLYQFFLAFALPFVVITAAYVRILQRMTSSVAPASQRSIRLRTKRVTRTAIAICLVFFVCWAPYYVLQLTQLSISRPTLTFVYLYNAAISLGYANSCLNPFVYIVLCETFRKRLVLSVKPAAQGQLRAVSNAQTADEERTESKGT

[9] = biological target: T4, Neuropeptides B/W receptor type 1 (Homo sapiens, UniProt P48145); assay: GPR7 antagonist potency, late-stage follow-up, cell-based, fluorescence, dose response (AID 463251); format: functional
T4 sequence (P48145 whole entry): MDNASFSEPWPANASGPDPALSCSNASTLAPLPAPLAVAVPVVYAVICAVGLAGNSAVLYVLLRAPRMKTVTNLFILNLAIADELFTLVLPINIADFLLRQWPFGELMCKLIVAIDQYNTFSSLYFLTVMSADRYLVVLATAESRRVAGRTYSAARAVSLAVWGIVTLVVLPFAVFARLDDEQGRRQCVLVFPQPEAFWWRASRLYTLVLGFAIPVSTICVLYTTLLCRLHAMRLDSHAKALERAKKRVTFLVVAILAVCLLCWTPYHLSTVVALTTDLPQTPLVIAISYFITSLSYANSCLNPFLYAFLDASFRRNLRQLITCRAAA

[10] = nmpC-GFP reporter inhibition in S. Typhimurium, dose response, counter-screen for PhoP regulon inhibitor project, purified and synthesized compounds, set 2 (AID 2834); format: functional
[11] = biological target: Cyclin-dependent kinase 5/CDK5 activator 1 (Homo sapiens, UniProt Q00535); assay: CDK5/p35 kinase inhibitors, dose response, biochemical, cherry-picked samples, set 2 (AID 504545)
Sequence of Cyclin-dependent kinase 5/CDK5 activator 1 (Q00535 whole entry): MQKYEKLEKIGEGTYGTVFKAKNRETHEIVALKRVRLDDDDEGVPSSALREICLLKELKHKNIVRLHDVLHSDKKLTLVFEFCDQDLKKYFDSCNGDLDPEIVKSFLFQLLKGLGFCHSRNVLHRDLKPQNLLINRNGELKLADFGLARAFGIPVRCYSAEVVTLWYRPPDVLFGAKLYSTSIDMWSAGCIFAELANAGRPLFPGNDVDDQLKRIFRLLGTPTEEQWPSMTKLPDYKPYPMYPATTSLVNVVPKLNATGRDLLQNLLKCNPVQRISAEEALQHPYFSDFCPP
Sequence of Cyclin-dependent kinase 5/CDK5 activator 1 (Q15078 whole entry, further chain): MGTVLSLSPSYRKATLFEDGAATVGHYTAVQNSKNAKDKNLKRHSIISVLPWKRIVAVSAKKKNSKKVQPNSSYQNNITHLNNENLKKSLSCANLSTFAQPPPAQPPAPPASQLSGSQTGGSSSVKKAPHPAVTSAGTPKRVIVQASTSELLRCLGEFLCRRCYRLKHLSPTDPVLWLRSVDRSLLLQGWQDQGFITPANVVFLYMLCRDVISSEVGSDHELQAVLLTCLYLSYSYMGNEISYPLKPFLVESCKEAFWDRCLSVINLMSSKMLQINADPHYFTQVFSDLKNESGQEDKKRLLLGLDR

[12] = NIH-3T3 fibroblast cytotoxicity, dose response, cytotoxicity control, cell-based, fluorescence, Alamar Blue, secondary assay (AID 2327); format: functional;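 also: NIH-3T3 mouse fibroblasts cultured with fluconazole at 8 µg/mL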
BJ [13] = assay: cytotoxicity toward BJ-TERT fibroblasts, dose response, cell-based, RAS-independent, luminescence (AID 1933); format: functional; details: Homo sapiens
H4 = assay: Luminescence Cell-Based Dose Response HTS to Identify Activators of 5'UTR Stem-Loop Driven Prion Protein mRNA Translation in H4 Neuroglioblastoma Cells. [Related pubchem assays: 1829 (Project Summary), 1814 (Primary HTS)]; format: functional; details: Homo sapiens
Vero [14] = assay: host cell cytotoxicity of antiviral hits, dose response, cytotoxicity control for West Nile virus antiviral project, secondary assay (AID 1650); format: functional; details: Chlorocebus sabaeus
BJ [15] = assay: cells; format: functional, cell-based; details: Homo sapiens
[16] = C. albicans growth with fluconazole, confirmation, fluorescence, retest (AID 2467); format: functional, cell-based
[17] = biological target: T5, Serine/threonine-protein phosphatase (Candida dubliniensis (strain CD36 / CBS 7987 / NCPF 3949 / NRRLY-17841) (Yeast), UniProt B9W6M3); assay: calcineurin pathway inhibitors in yeast reporter, dose response, S. cerevisiae, CDRE-lacZ, luminescence, secondary (AID 2388); format: functional, cell-based;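 also: yeast reporter cells carrying a calcineurin-responsive lacZ construct stimulated with calcium chloride; luminescent beta-galactosidase reporter signal in whole cells rather than isolated phosphatase activity; potency for inhibition where a drop in reporter signal means calcineurin blockade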
T5 sequence (B9W6M3 whole entry): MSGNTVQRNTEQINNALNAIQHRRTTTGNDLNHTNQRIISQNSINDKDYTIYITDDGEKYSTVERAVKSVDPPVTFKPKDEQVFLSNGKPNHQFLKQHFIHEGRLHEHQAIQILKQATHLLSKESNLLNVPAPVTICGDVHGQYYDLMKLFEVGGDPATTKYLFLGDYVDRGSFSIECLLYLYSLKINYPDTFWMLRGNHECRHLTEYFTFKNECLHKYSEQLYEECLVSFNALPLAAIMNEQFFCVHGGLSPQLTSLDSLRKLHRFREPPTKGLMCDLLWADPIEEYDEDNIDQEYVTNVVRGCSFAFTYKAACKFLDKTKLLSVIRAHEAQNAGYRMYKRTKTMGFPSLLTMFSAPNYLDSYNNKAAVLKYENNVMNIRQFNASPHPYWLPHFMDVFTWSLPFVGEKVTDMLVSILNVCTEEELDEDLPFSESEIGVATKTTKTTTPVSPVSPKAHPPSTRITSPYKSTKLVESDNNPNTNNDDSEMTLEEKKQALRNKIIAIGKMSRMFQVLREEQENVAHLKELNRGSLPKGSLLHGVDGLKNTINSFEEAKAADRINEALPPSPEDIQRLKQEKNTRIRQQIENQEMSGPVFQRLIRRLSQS

BJ [18] = assay: cytotoxicity toward BJ-TERT-LT-ST fibroblasts, dose response, cell-based, RAS-independent, luminescence (AID 1935); format: functional; details: Homo sapiens;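 also: BJ fibroblasts immortalized with TERT plus LT and ST oncogenes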
[19] = cytotoxicity toward DRD oncogenic fibroblasts, dose response, cell-based, non-viral oncogenic, luminescence (AID 1934); format: functional; details: Homo sapiens
[20] = biological target: NACHT, LRR and PYD domains-containing protein 3 (Homo sapiens, UniProt Q96P20); assay: NALP3 inhibitors in yeast, dose response, luminescent (AID 488799); format: functional
Sequence of NACHT, LRR and PYD domains-containing protein 3 (Q96P20 whole entry, the tested form may be a part): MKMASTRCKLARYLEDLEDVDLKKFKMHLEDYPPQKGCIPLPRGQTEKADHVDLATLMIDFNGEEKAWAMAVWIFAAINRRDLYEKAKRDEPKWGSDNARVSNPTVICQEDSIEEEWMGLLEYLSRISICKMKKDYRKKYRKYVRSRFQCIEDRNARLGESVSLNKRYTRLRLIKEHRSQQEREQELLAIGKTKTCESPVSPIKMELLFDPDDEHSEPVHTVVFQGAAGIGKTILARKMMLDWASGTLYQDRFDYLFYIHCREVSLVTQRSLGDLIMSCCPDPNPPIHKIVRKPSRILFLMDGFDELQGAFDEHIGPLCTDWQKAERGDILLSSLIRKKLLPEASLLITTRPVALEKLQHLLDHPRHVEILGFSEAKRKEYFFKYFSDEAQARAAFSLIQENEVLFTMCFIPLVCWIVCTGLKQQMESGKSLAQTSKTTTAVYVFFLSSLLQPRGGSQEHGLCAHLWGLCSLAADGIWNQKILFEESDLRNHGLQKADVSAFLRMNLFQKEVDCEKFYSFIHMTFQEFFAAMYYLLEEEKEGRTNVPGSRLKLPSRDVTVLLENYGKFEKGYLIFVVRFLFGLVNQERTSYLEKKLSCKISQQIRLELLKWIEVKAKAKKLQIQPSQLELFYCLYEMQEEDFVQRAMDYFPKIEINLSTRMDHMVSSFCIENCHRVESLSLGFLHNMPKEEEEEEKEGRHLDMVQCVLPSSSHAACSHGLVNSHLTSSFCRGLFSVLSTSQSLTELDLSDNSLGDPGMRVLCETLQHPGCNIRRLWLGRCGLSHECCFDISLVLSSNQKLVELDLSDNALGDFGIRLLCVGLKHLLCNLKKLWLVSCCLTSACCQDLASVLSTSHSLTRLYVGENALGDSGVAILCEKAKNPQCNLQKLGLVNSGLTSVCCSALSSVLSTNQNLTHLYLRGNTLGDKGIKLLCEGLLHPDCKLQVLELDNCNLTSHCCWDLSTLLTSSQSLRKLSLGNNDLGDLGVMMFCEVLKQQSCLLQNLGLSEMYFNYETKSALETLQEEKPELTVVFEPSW

Jurkat = assay: antigen receptor-induced NF-kB inhibitors, dose response, Jurkat, luciferase reporter, luminescence, B- and T-cell (AID 489004); format: functional, cell-based; details: Homo sapiens;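 also: NF-kB luciferase reporter Jurkat cells stimulated with PMA plus ionomycin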
[21] = cytotoxicity in HEK-293T NF-kB-Luc cells, dose response, cytotoxicity control for B/T-cell NF-kB inhibitor project, cell-based, uHTS hits (AID 489019); format: functional;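 also: IC50 reflects cytotoxicity as loss of cell viability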
Vero [22] = assay: cells; format: functional; details: Chlorocebus sabaeus
[23] = Shn3 3'UTR reporter inhibitors, dose response, cell-based, Clone20 osteoblasts, firefly luciferase, cherry-picked (AID 624132); format: functional;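 also: firefly luciferase luminescence from reporter carrying the Shn3 3'UTR in osteoblasts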
[24] = HepG2 cell cytotoxicity, dose response, cytotoxicity control for Shn3 inhibitor project, CellTiter-Glo, cherry-picked (AID 624134); format: functional, cell-based
[25] = control 3'UTR Renilla luciferase suppression, dose response, counter-screen for Shn3 inhibitor project, cell-based, Clone20-Shn3RL, cherry-picked (AID 624133); format: functional

CCn1c(=O)n(CC)c2cc(NC(=O)C(C)c3ccccc3)c(Br)cc21 (configuration not stated)
IC50 [1]: > 100 µM (inactive) | IC50 [2]: 21.5 µM (active) | IC50 [3]: > 100 µM (inactive) | IC50 [4]: 9.4 µM (active)

O=C(Nc1nc(-c2ccccc2)cs1)c1ccccc1Cl
CC50 (Vero [5]): 14 µM (active)

O=C(Nn1cnnc1)c1ccccc1-c1ccccc1
IC50 (Aspartyl aminopeptidase): 2.89 µM (active) | IC50 (Procathepsin L): > 59.6 µM (not active)

CC1CCCN(C(C(=O)Nc2ccc3c(c2)OCCO3)c2ccccc2)C1 (configuration not stated)
IC50 (Staphylococcus aureus): 0.125 µM (active)

CN1CC=C2C(C#N)=C(N)C(C#N)(C#N)C(c3ccsc3)C2C1 (configuration not stated)
IC50 [6]: 0.991 µM (active)

O=C1N[C@@H](Cc2ccccc2)[C@@H](c2ccco2)O1
AC50 [7]: 7.07 µM (active)

O=C(NCc1ccccc1Br)c1cccs1
Kd (Chaperone protein dnaK): 39.3 µM (inactive)

Cc1ccc(C(=O)N2N=C(c3ccccc3O)CC2c2ccccc2)cc1 (configuration not stated)
AC50 (Trypsin): 67.6 µM (active)

COc1ccc(Oc2c(Cl)cnn(-c3ccc(I)cc3)c2=O)cc1
IC50 [8]: 4.7 µM (active) | IC50 [9]: 1 µM (active)

O=C1C2=C(Nc3ccccc3SC2c2ccc(I)cc2)c2ccccc21 (configuration not stated)
IC50 [10]: 232 µM (active)

CC(C)n1cnc2c(Nc3ccc(F)c(Cl)c3)nc(NCCO)nc21
AC50 [11]: 3.36 µM (active)

C[C@@H]1C[C@@H]2O[C@H]2/C=C\C=C\C(=O)Cc2c(Cl)c(O)cc(O)c2C(=O)O1
EC50 [12]: 44.5 µM (inconclusive) | EC50 (BJ [13]): 21 µM (active) | EC50 (H4): > 120 µM (not active) | CC50 (Vero [14]): 3.11 µM (active) | EC50 (BJ [15]): 0.309 µM (active) | EC50 [16]: 0.049 µM (active) | EC50 [17]: > 180 µM (inactive) | EC50 (BJ [18]): 1.81 µM (active) | EC50 [19]: 2.08 µM (active) | IC50 [20]: 8.41 µM (active) | IC50 (Jurkat): 0.21 µM (active) | IC50 [21]: > 80 µM (inactive) | CC50 (Vero [22]): 15.8 µM (active) | AC50 [23]: 6.4 µM (active) | AC50 [24]: 49.8 µM (active) | AC50 [25]: 12.3 µM (active)

Reference: ChEMBL document CHEMBL1201862, “PubChem BioAssay data set” (2004)
